{"source": "patent US20070154579A1", "about": "“Morinda Citrifolia Based Formulation And Methods For Weight Management” (priority 2005, published 2007)", "key": {"Somatostatin sst5": {"biological_target": "Somatostatin sst5 (Homo sapiens, UniProt P35346)", "sequence (P35346 whole entry)": "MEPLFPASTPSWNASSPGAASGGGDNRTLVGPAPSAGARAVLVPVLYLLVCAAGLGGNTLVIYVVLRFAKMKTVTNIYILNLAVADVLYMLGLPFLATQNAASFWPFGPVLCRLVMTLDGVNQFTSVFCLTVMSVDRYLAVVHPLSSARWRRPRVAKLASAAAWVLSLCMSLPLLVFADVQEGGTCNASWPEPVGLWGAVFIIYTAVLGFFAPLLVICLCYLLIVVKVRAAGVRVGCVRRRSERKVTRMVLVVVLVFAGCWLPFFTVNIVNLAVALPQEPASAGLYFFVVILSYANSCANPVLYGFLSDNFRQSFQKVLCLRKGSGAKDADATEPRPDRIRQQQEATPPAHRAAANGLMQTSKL", "settings": "historical value, Hill coefficient; cited from earlier work"}, "Adrenergic β2": {"biological_target": "Adrenergic β2 (Homo sapiens, UniProt P07550)", "sequence (P07550 whole entry)": "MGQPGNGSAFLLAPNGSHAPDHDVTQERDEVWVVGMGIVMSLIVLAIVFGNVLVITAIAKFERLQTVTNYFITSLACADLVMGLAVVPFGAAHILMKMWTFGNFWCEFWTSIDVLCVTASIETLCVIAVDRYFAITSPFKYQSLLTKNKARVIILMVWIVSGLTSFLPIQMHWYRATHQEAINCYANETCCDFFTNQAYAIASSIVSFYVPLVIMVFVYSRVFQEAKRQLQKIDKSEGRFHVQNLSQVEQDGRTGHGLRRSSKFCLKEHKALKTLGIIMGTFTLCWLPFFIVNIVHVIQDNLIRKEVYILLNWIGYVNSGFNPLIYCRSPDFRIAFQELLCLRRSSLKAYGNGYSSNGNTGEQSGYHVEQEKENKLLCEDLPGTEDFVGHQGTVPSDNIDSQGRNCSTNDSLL", "settings": "ephedrine, from research studies; cited from earlier work"}, "Adrenergic β1": {"biological_target": "Adrenergic β1 (Homo sapiens, UniProt P08588)", "sequence (P08588 whole entry)": "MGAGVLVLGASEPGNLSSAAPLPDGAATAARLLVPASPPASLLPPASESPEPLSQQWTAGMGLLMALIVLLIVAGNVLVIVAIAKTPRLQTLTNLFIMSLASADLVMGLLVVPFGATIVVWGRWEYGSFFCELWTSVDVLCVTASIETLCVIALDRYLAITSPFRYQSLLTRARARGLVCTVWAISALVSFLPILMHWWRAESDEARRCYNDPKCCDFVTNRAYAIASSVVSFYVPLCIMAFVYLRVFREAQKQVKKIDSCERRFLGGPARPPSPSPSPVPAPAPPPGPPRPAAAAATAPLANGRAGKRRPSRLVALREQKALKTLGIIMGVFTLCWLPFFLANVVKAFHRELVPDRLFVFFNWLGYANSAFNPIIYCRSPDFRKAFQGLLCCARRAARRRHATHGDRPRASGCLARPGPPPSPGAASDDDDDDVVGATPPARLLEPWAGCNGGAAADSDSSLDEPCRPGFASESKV", "settings": "ephedrine, from research studies; cited from earlier work"}, "Adrenergic β3": {"biological_target": "Adrenergic β3 (Homo sapiens, UniProt P13945)", "sequence (P13945 whole entry)": "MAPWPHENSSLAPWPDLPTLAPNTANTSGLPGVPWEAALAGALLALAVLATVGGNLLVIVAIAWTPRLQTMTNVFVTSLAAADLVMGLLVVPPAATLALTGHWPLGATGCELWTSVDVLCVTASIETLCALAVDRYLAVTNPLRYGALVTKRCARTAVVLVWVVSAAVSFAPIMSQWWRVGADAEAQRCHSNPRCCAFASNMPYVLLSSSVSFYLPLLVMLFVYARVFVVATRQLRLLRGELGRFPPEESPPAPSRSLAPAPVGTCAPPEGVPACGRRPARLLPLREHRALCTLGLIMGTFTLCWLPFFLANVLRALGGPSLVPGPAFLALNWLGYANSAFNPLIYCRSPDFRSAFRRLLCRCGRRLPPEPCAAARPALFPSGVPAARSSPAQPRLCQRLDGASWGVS", "settings": "ephedrine, from research studies; cited from earlier work"}, "Bombesin BB1": {"biological_target": "Bombesin BB1 (Homo sapiens, UniProt P28336)", "sequence (P28336 whole entry)": "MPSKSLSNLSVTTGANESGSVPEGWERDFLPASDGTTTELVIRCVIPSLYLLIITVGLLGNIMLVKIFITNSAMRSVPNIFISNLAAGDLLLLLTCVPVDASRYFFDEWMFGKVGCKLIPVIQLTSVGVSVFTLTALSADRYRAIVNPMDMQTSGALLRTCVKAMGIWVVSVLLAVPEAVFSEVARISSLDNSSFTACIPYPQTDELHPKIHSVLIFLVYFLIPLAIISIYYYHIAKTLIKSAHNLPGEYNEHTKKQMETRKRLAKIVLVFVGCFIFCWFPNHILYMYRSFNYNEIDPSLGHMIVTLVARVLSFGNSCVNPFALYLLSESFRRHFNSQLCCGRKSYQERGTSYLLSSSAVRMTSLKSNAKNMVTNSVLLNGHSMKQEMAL", "settings": "historical value, Hill coefficient; cited from earlier work"}, "Bombesin BB3 [1]": {"biological_target": "T1, Bombesin BB3 (Homo sapiens, UniProt P32247)", "T1 construct": "expressed in transfected cells; host or cells: Balb 3T3 cells", "T1 sequence (P32247 1-399)": "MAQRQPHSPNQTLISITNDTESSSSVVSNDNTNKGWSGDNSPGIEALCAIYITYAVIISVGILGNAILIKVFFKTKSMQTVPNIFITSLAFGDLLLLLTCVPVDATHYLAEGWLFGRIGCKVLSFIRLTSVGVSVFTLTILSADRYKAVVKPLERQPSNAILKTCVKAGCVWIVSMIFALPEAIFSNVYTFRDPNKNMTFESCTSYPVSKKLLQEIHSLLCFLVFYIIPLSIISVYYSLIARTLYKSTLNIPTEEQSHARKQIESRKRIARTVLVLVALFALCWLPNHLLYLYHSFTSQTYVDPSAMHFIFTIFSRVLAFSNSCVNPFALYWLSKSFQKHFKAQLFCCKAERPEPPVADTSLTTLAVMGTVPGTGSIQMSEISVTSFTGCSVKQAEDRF", "settings": "historical value, cited from earlier work"}, "Bombesin BB3 [2]": {"biological_target": "T1, Bombesin BB3", "test": "Bombesin BB3 radioligand binding", "settings": "batch 147476; read-out: Concurrent IC50 (reference compound)", "procedure": "The effects of juice from Morinda Citrifolia (noni) on metabolic rate were analyzed by analyzing the bombesin response. “TNJ” refers to Morinda citrifolia juice processed according to this invention and commericially available as […] NONI® juice, “Sample #100” is a Noni concentrate and “TNCMP1” refers to Morinda citrifolia evaporative concentrate. The percentage of concentration represents the concentration strength of the particular concentrate tested; that is, the strength of concentration relative to the Morinda citrifolia fruit juice from which the concentrate was obtained.\nThe following materials and methods were utilized in the Bombesin research."}}, "note": "“Also recorded” adds a separate entry of the source. Read-outs that look alike come from different tables or passages of the source. Square brackets hold non-standard residues; d marks the D form. Peptide text beside a SMILES is read from it. Nle = CCCC[C@H](N)C(=O)O; βAla = NCCC(=O)O"}
{"compound": "Somatostatin-14", "values": [{"measurement": "Historical nH (reference compound; no head)", "setting": "Somatostatin sst5", "result": 0.8}]}
{"compound": "CN[C@@H](C)[C@H](O)c1ccccc1", "note": "[ephedrine]", "values": [{"measurement": "adrenergic β-2 response (agonist/antagonist)", "setting": "Adrenergic β2", "result": "inhibits; also recorded: antagonist"}, {"measurement": "adrenergic β-1 response (agonist/antagonist)", "setting": "Adrenergic β1", "result": "inhibits; also recorded: antagonist"}, {"measurement": "adrenergic β-3 response (agonist/antagonist)", "setting": "Adrenergic β3", "result": "activating; also recorded: agonist"}]}
{"compound": "Neuromedin B", "values": [{"measurement": "Historical nH (reference compound)", "setting": "Bombesin BB1", "result": 0.9}]}
{"compound": "CCCC[C@H](NC(=O)[C@H](Cc1ccccc1)NC(=O)[C@H](Cc1c[nH]cn1)NC(=O)CCNC(=O)[C@@H](NC(=O)[C@H](C)NC(=O)[C@H](Cc1c[nH]c2ccccc12)NC(=O)[C@H](CCC(N)=O)NC(=O)[C@H](N)Cc1ccccc1)C(C)C)C(N)=O", "note": "[(D-Phe^6, β-Ala^11, Phe^13, Nle^14)-BN (6-14)] (H-[dF]QWAV[βAla]HF[Nle]-NH2; N-terminus and C-terminus assumed)", "values": [{"measurement": "Historical nH (reference compound)", "setting": "Bombesin BB3 [1]; Hill coefficient", "result": 0.9}, {"measurement": "IC50", "setting": "Bombesin BB3 [1]; read-out: Historical IC50 (reference compound)", "result": 6.1, "unit": "nM"}, {"measurement": "Ki", "setting": "Bombesin BB3 [1]; read-out: Historical Ki (reference compound)", "result": 4.1, "unit": "nM"}, {"measurement": "IC50", "setting": "Bombesin BB3 [2]", "result": 5.99, "unit": "nM"}]}
